According to patent US20060189535A1, “Combination treatment using exendins and thiazolidinediones” (priority 2002, published 2006):

Tests used:
male ZDF rat = test: Four weeks combination treatment of overtly diabetic male ZDF rats; HbA1c and 24-hour glucose profiles; format: in vivo; conditions: thiazolidinedione insulin sensitizer x mg/kg oral once daily + Exendin-4(1-39) xx μg/kg s.c. twice daily
Experimental: Synergistic effect of combining thiazolidinedione insulin sensitizer and exendin-4(1-39) on glucose and HbA1c, (glycosylated hemoglobin) in the male ZDF rat.
Male ZDF rats were used in the study. Before treatment start, measurements of glucose and HbA1c were performed. All animals were overtly diabetic at the beginning of the study. Animals were allocated into the following 4 treatment groups: • Group 1: Vehicle-1+Vehicle-2 • Group 2: thiazolidinedione insulin sensitizer, x mg/kg+Vehicle-2 (n=10) • Group 3: Vehicle-1+exendin-4(1-39), xx μg/kg • Group 4: thiazolidinedione insulin sensitizer, x mg/kg+exendin-4(1-39), xx μtg/kg
Thiazolidinedione insulin sensitizer and Vehicle-1 were administered by oral gavage once daily at approx. 07:30. Exendin-4(1-39) and Vehicle-2 were administered subcutaneously twice daily at approx. 07:30 and 14:30.
After four weeks treatment, HbA1c was measured and 24-hour glucose profiles were assessed.
The findings of group 1, 2, 3 and 4 are listed. Delta HbA1c values referring to the numerical difference between the measurement after treatment and the measurement before treatment are calculated. Glucose24 hAUc refers to the total area under the glucose concentration curve during the 24-hour period. A two-way analysis of variance are performed for each parameter and the significance of the interaction term evaluated.

dogs = conditions: injected into dogs; cited from earlier work

Exendin-4(1-39)
effect on 24-hour glucose profiles (Glucose 24h AUC, two-way ANOVA interaction term) (male ZDF rat): synergistic (greater than additive) effects
effect on HbA1c (delta HbA1c, two-way ANOVA interaction term) (male ZDF rat): synergistic (greater than additive) effects
insulin release and blood glucose level (dogs): stimulate insulin release and ensuing lowering of the blood glucose level
